Read-outs that look alike come from different tables or passages of the source.
What was measured:
[1] = background, prior art, cited from earlier work
[2] = bulk solution maintained at 5° C. to 15° C., such as 12° C.±3° C., for an extended period of time

In the case of `O=P1(N(CCCl)CCCl)NCCCO1` (stereo not drawn) [anhydrous form, cyclophosphamide anhydrous], the stability as reported [1] is listed as “highly unstable”.

With `O=P1(N(CCCl)CCCl)NCCCO1` (stereo not drawn) [cyclophosphamide, 2-[bis(2-chloroethyl)amino]tetrahydro-2H-1,3,2-oxazaphosphorine 2-oxide] the “degradation in bulk solution” value [2] was “significant degradation”.

For `O=P1(N(CCCl)CCCl)NCCCO1` (stereo not drawn) [monohydrate drug form, cyclophosphamide monohydrate], the stability as reported ([1]; monohydrate) is listed as “stable”.
